According to ChEMBL document CHEMBL3112480, “γ-Alkylidene-γ-lactones and isobutylpyrrol-2(5H)-ones analogues to rubrolides as inhibitors of biofilm formation by gram-positive and gram-negative bacteria” (Bioorg Med Chem Lett, 2014):
Values after ≈ are worked out from the molar mass of the structure shown.

How the values were obtained:
[1] = tested on: Staphylococcus aureus; assay: Antibacterial activity against Staphylococcus aureus ATCC 25923 assessed as effect on planktonic growth at 43.8 ug/ml after 20 hrs relative to control; type: functional
[2] = tested on: Staphylococcus aureus; assay: Antibacterial activity against Staphylococcus aureus ATCC 25923 assessed as effect on planktonic growth at 2.73 ug/ml after 20 hrs relative to control; type: functional
[3] = tested on: Staphylococcus epidermidis; assay: Antibacterial activity against Staphylococcus epidermidis ATCC 35547 assessed as inhibition of biofilm formation after 20 hrs by crystal-violet staining method; type: functional, organism-based
[4] = tested on: Staphylococcus aureus; assay: Antibacterial activity against Staphylococcus aureus ATCC 25923 assessed as effect on planktonic growth at 87.5 ug/ml after 20 hrs relative to control; type: functional
[5] = tested on: Staphylococcus epidermidis; assay: Antibacterial activity against Staphylococcus epidermidis ATCC 35547 assessed as effect on planktonic growth at 0.17 ug/ml after 20 hrs relative to control; type: functional
[6] = tested on: Streptococcus mutans; assay: Antibacterial activity against Streptococcus mutans ATCC 25175 assessed as effect on planktonic growth at 21.9 ug/ml after 20 hrs relative to control; type: functional
[7] = tested on: Streptococcus mutans; assay: Antibacterial activity against Streptococcus mutans ATCC 25175 assessed as effect on planktonic growth at 0.34 ug/ml after 20 hrs relative to control; type: functional
[8] = tested on: Pseudomonas aeruginosa; assay: Antibacterial activity against Pseudomonas aeruginosa ATCC 27853 assessed as effect on planktonic growth at 5.5 ug/ml after 20 hrs relative to control; type: functional
[9] = tested on: Staphylococcus epidermidis; assay: Antibacterial activity against Staphylococcus epidermidis ATCC 35547 assessed as effect on planktonic growth at 87.5 ug/ml after 20 hrs relative to control; type: functional
[10] = tested on: Staphylococcus epidermidis; assay: Antibacterial activity against Staphylococcus epidermidis ATCC 35547 assessed as effect on planktonic growth at 43.8 ug/ml after 20 hrs relative to control; type: functional
[11] = tested on: Pseudomonas aeruginosa; assay: Antibacterial activity against Pseudomonas aeruginosa ATCC 27853 assessed as effect on planktonic growth at 87.5 ug/ml after 20 hrs relative to control; type: functional
[12] = tested on: Pseudomonas aeruginosa; assay: Antibacterial activity against Pseudomonas aeruginosa ATCC 27853 assessed as effect on planktonic growth at 0.17 ug/ml after 20 hrs relative to control; type: functional
[13] = tested on: Staphylococcus aureus; assay: Antibacterial activity against Staphylococcus aureus ATCC 25923 assessed as effect on planktonic growth at 10.9 ug/ml after 20 hrs relative to control; type: functional
[14] = tested on: Pseudomonas aeruginosa; assay: Antibacterial activity against Pseudomonas aeruginosa ATCC 27853 assessed as effect on planktonic growth at 21.9 ug/ml after 20 hrs relative to control; type: functional
[15] = tested on: Streptococcus mutans; assay: Antibacterial activity against Streptococcus mutans ATCC 25175 assessed as effect on planktonic growth at 0.68 ug/ml after 20 hrs relative to control; type: functional
[16] = tested on: Streptococcus mutans; assay: Antibacterial activity against Streptococcus mutans ATCC 25175 assessed as effect on planktonic growth at 1.37 ug/ml after 20 hrs relative to control; type: functional
[17] = tested on: Streptococcus mutans; assay: Antibacterial activity against Streptococcus mutans ATCC 25175 assessed as effect on planktonic growth at 0.17 ug/ml after 20 hrs relative to control; type: functional
[18] = tested on: Streptococcus mutans; assay: Antibacterial activity against Streptococcus mutans ATCC 25175 assessed as effect on planktonic growth at 2.73 ug/ml after 20 hrs relative to control; type: functional
[19] = tested on: Staphylococcus epidermidis; assay: Antibacterial activity against Staphylococcus epidermidis ATCC 35547 assessed as effect on planktonic growth at 10.9 ug/ml after 20 hrs relative to control; type: functional
[20] = tested on: Pseudomonas aeruginosa; assay: Antibacterial activity against Pseudomonas aeruginosa ATCC 27853 assessed as effect on planktonic growth at 43.8 ug/ml after 20 hrs relative to control; type: functional
[21] = tested on: Streptococcus mutans; assay: Antibacterial activity against Streptococcus mutans ATCC 25175 assessed as effect on planktonic growth at 43.8 ug/ml after 20 hrs relative to control; type: functional
[22] = tested on: Staphylococcus aureus; assay: Antibacterial activity against Staphylococcus aureus ATCC 25923 assessed as effect on planktonic growth at 21.9 ug/ml after 20 hrs relative to control; type: functional
[23] = tested on: Staphylococcus epidermidis; assay: Antibacterial activity against Staphylococcus epidermidis ATCC 35547 assessed as effect on planktonic growth at 0.34 ug/ml after 20 hrs relative to control; type: functional
[24] = tested on: Staphylococcus aureus; assay: Antibacterial activity against Staphylococcus aureus ATCC 25923 assessed as effect on planktonic growth at 5.5 ug/ml after 20 hrs relative to control; type: functional
[25] = tested on: Staphylococcus epidermidis; assay: Antibacterial activity against Staphylococcus epidermidis ATCC 35547 assessed as effect on planktonic growth at 2.73 ug/ml after 20 hrs relative to control; type: functional
[26] = tested on: Staphylococcus epidermidis; assay: Antibacterial activity against Staphylococcus epidermidis ATCC 35547 assessed as effect on planktonic growth at 1.37 ug/ml after 20 hrs relative to control; type: functional
[27] = tested on: Staphylococcus epidermidis; assay: Antibacterial activity against Staphylococcus epidermidis ATCC 35547 assessed as effect on planktonic growth at 5.5 ug/ml after 20 hrs relative to control; type: functional
[28] = tested on: Staphylococcus epidermidis; assay: Antibacterial activity against Staphylococcus epidermidis ATCC 35547 assessed as effect on planktonic growth at 21.9 ug/ml after 20 hrs relative to control; type: functional
[29] = tested on: Staphylococcus aureus; assay: Antibacterial activity against Staphylococcus aureus ATCC 25923 assessed as effect on planktonic growth at 1.37 ug/ml after 20 hrs relative to control; type: functional
[30] = tested on: Staphylococcus epidermidis; assay: Antibacterial activity against Staphylococcus epidermidis ATCC 35547 assessed as effect on planktonic growth at 0.68 ug/ml after 20 hrs relative to control; type: functional
[31] = tested on: Pseudomonas aeruginosa; assay: Antibacterial activity against Pseudomonas aeruginosa ATCC 27853 assessed as inhibition of biofilm formation after 20 hrs by crystal-violet staining method; type: functional, organism-based
[32] = tested on: Streptococcus mutans; assay: Antibacterial activity against Streptococcus mutans ATCC 25175 assessed as effect on planktonic growth at 10.9 ug/ml after 20 hrs relative to control; type: functional
[33] = tested on: Streptococcus mutans; assay: Antibacterial activity against Streptococcus mutans ATCC 25175 assessed as effect on planktonic growth at 5.5 ug/ml after 20 hrs relative to control; type: functional
[34] = tested on: Staphylococcus aureus; assay: Antibacterial activity against Staphylococcus aureus ATCC 25923 assessed as effect on planktonic growth at 0.17 ug/ml after 20 hrs relative to control; type: functional
[35] = tested on: Pseudomonas aeruginosa; assay: Antibacterial activity against Pseudomonas aeruginosa ATCC 27853 assessed as effect on planktonic growth at 2.73 ug/ml after 20 hrs relative to control; type: functional
[36] = tested on: Pseudomonas aeruginosa; assay: Antibacterial activity against Pseudomonas aeruginosa ATCC 27853 assessed as effect on planktonic growth at 10.9 ug/ml after 20 hrs relative to control; type: functional
[37] = tested on: Staphylococcus aureus; assay: Antibacterial activity against Staphylococcus aureus ATCC 25923 assessed as effect on planktonic growth at 0.34 ug/ml after 20 hrs relative to control; type: functional
[38] = tested on: Streptococcus mutans; assay: Antibacterial activity against Streptococcus mutans ATCC 25175 assessed as effect on planktonic growth at 87.5 ug/ml after 20 hrs relative to control; type: functional
[39] = tested on: Staphylococcus aureus; assay: Antibacterial activity against Staphylococcus aureus ATCC 25923 assessed as effect on planktonic growth at 0.68 ug/ml after 20 hrs relative to control; type: functional
[40] = tested on: Pseudomonas aeruginosa; assay: Antibacterial activity against Pseudomonas aeruginosa ATCC 27853 assessed as effect on planktonic growth at 0.68 ug/ml after 20 hrs relative to control; type: functional
[41] = tested on: Pseudomonas aeruginosa; assay: Antibacterial activity against Pseudomonas aeruginosa ATCC 27853 assessed as effect on planktonic growth at 0.34 ug/ml after 20 hrs relative to control; type: functional
[42] = tested on: Pseudomonas aeruginosa; assay: Antibacterial activity against Pseudomonas aeruginosa ATCC 27853 assessed as effect on planktonic growth at 1.37 ug/ml after 20 hrs relative to control; type: functional

COc1ccc(Br)cc1C1=C(Br)C(=O)O/C1=C\c1ccc(Br)cc1 was tested, and the Activity [1] was 13.1%, the Activity [2] was 5.6% and the inhibition [3] was “Dose-dependent effect”. It also gave an IC50 ([3]; ATCC 35547, 20 h) of 41.3 µg/mL (≈ 80.2 µM), an Activity [4] of 9.4% and an Activity [5] of 8.1%. The Activity [6] was 4%, the Activity [7] was 3.8% and the Activity [8] was -22%. It also gave an Activity [9] of 31.9%, an Activity [10] of 22.1% and an Activity [11] of -12.9%. It also gave an Activity [12] of -1.8%, an Activity [13] of 15.8% and an Activity [14] of -15.1%. It also gave an Activity [15] of 7%, an Activity [16] of 12.3% and an Activity [17] of 4.5%. It also gave an Activity [18] of 15%, an Activity [19] of -1.5% and an Activity [20] of -12.1%. For the same molecule, the Activity [21] was -11.3%, the Activity [22] was 23.1% and the Activity [23] was 0.6%. For the same molecule, the Activity [24] was 8.3%, the Activity [25] was 4.5% and the Activity [26] was -2.2%. For the same molecule, the Activity [27] was 1%, the Activity [28] was 3.9% and the Activity [29] was 6.7%. The Activity [30] was -0.2%, the inhibition [31] was “Dose-dependent effect” and the IC50 ([31]; ATCC 27853, 20 h) was over 87.5 µg/mL. It also gave an Activity [32] of 7.2%, an Activity [33] of 10.3% and an Activity [34] of -1.6%. It also gave an Activity [35] of -19.2%, an Activity [36] of -17.6% and an Activity [37] of 0.5%. The Activity [38] was -13.5%, the Activity [39] was 0.8% and the Activity [40] was -1.8%. It also gave an Activity [41] of -1.9% and an Activity [42] of -8.6%.
In the case of COc1ccc(C)cc1C1=C(Br)C(=O)O/C1=C\c1ccccc1Cl, the Activity [1] is reported as 25.3%, the Activity [2] is reported as 16.9% and the inhibition [3] is reported as “Dose-dependent effect”. It also gave an Activity [4] of 37%, an Activity [5] of -1.6% and an Activity [6] of -3.3%. It also gave an Activity [7] of 6.4%, an Activity [8] of -5.3% and an Activity [9] of 70.5%. The Activity [10] was 36.5%, the Activity [11] was 11.1% and the Activity [12] was -3.8%. It also gave an Activity [13] of 10.9%, an Activity [14] of -6.8% and an Activity [15] of 5.6%. It also gave an Activity [16] of 1.5%, an Activity [17] of 1.5% and an Activity [18] of -4.1%. The Activity [19] was 13.5%, the Activity [20] was -2% and the Activity [21] was 7.4%. For the same molecule, the Activity [22] was 7.3%, the Activity [23] was -0.1% and the Activity [24] was 8.3%. For the same molecule, the Activity [25] was -0.7%, the Activity [26] was 8.5% and the Activity [27] was 3.7%. It also gave an Activity [28] of 15.8%, an Activity [29] of 16.9% and an Activity [30] of 0.9%. The inhibition [31] was “Dose-dependent effect”, the Activity [32] was -13.6% and the Activity [33] was 0.8%. The Activity [34] was 6%, the Activity [35] was -4.1% and the Activity [36] was -10.2%. The Activity [37] was 8.3%, the Activity [38] was 18.9% and the Activity [39] was 10.9%. The Activity [40] was -7.8%, the Activity [41] was -8.6% and the Activity [42] was -7.5%.
